Test results taken from publication PMC9699003, “Arene Variation of Highly Cytotoxic Tridentate Naphthoquinone-Based Ruthenium(II) Complexes and In-Depth In Vitro Studies” (Pharmaceutics, 2022).

Test system: CH1/PA-1 cells
Assay: DCFH-DA assay (ROS levels)
Type: cell-based, human
Conditions: CH1/PA-1, DCFH-DA, up to 2 h

CC1=C([O-])C([O-])(n2cccn2)c2ccccc2C1=O.Cc1ccc(C(C)C)cc1.[Ru+2] (racemic) [Compound 1]
ROS level, T/C (treated vs negative control): ≈ 0.5
